In paper PMC4076079, “Selective inhibitors of a PAF biosynthetic enzyme lysophosphatidylcholine acyltransferase 2” (Journal of Lipid Research, 2014):

Molecular target: T1, hLPCAT2 (Homo sapiens, UniProt Q7L5N7)
T1 construct: expressed in transfected cells; host or cells: CHO-S-PAFR cells (microsomal fraction), with or without mcPAF stimulation
T1 sequence (Q7L5N7 1-544): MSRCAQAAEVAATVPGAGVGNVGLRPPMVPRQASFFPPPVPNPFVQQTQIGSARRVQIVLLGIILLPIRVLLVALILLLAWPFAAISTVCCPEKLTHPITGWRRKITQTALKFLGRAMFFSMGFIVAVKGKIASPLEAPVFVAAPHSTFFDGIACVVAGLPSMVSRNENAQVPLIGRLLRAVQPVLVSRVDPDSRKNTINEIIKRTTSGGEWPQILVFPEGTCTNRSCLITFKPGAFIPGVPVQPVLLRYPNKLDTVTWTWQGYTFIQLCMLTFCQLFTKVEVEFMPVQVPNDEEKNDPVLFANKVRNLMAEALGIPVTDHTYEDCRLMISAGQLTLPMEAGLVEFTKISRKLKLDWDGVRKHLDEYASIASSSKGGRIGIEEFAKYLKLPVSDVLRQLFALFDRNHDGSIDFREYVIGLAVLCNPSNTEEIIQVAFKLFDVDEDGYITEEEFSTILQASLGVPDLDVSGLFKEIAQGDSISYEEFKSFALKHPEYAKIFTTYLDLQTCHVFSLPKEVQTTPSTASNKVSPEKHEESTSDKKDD
Assay: kinetic analysis of lyso-PAFAT activity
Assay type: biochemical
Conditions: lyso-PAFAT activity of hLPCAT2, competitive with acetyl-CoA; Dixon plot, Prism; mcPAF-stimulated microsomes; read-out: Inhibition constant (apparent Ki value)
Description: Microsomal protein fractions (0.5 μg) supplemented with the indicated compound concentrations were added to the reaction mixture containing 100 mM Tris-HCl (pH 7.4), 1 μM CaCl2, 0.015% Tween-20, and two substrates. For acetyltransferase activity, the substrates were 1 mM acetyl-CoA and 5 μM d4-lyso-PAF; for the acyltransferase activity of LPCAT1 or LPCAT2, the substrates were, respectively, palmitoyl-CoA and d31-16:0 LPC or arachidonoyl-CoA and d4-lyso-PAF (all 5 μM). Each lysophospholipid contained fatty acid at the sn-1 position. After incubation at 37°C for 5 min, the reactions were stopped by adding 300 μl methanol containing 17:0 LPC or 14:0/14:0 PC as an internal standard. Deuterium-labeled products were analyzed by LC-MS/MS (Waters, Milford, MA and Thermo Scientific, Waltham, MA).
To investigate the mechanism by which TSI-01 inhibited lyso-PAFAT activity of hLPCAT2, kinetic analysis was performed. CHO-S-PAFR cells overexpressing hLPCAT2 were stimulated with or without mcPAF for 30 s and analyzed for lyso-PAFAT activity in the microsomal fraction. […] Inhibition constant (apparent Ki value) of TSI-01 was also calculated as 30–40 nM using Prism software (Fig. 6D).
Fig. 6. Effects of TSI-01 on kinetics of LPCAT2 enzymatic activity. […]

CC(C)OC(=O)c1ccc(N2C(=O)C(Cl)=C(Cl)C2=O)cc1 [TSI-01, propan-2-yl 4-(3,4-dichloro-2,5-dioxopyrrol-1-yl)benzoate]
Ki: 30 to 40 nM
